The values below come from US7776873B2, “Method for treating damage to gastric mucosa” (Yuhan Corporation, priority 2005, dated 2010).

The subject of data set [1] is human gastric epithelial (AGS) cells infected with H. pylori (ATCC 43504). Nature of the data set: Incidence of H. pylori-induced cell death (MTT assay-1). It counts as cell-based. Particulars: FIG. 1. How it is done: In order to determine cytoprotective properties of revaprazan against H. pylori infection, gastric mucosal cells were pretreated with revaprazan and rebamipide prior to H. pylori infection, and the incidence of cell death was measured. Rebamipide, known to have cytoprotective properties, was used as a control drug.
The human gastric epithelial (AGS, KCLB 21739) cells were seeded onto 96-well plate at 5×10^4 cells/ml and cultured in RPMI 1640 (Gibco BRL, Grand Island, N.Y., U.S.A.), supplemented with 100 units/mL penicillin, 100 ug/mL streptomycin, and 10% FBS (Fetal Bovine Serum). Revaprazan and rebamipide, dissolved in sterilized water, were added to AGS cells to reach a final concentration of 50 uM and the cells were incubated at 37° C. for 16 hours. To remove RPMI 1640 media, the plate was centrifuged at 24° C., 3000 rpm for 5 minutes and washed three times with PBS (137 mM NaCl, 2.7 mM KCl, 10 mM Na2HPO4, and 2 mM KH2PO4). For inoculation, H. pylori (ATCC 43504) cultures were resuspended in PBS and cocultured with AGS cells at a final concentration of 5×10^8 CFU/ml. After 48 hours of incubation at 37° C., the culture was centrifuged at 24° C., 3000 rpm for 5 minutes to remove the culture medium, i.e., RPMI 1640, and then total viable cell numbers were assessed by MTT (3-[4,5-dimethylthiazol-2-yl]-2,5-diphenyl tetrazolim bromide) assay method. 1 mg/ml of an MTT solution prepared by dissolving MTT (Amresco, Ohio, U.S.A.) in PBS (137 mM NaCl, 2.7 mM KCl, 10 mM Na2HPO4, and 2 mM KH2PO4) was added to each well (50 μl/well), followed by incubation at 37° C. for 4 hours. The supernatant was then removed by centrifugation at 24° C., 3000 rpm for 5 minutes and the formazan grains formed by the viable cells were dissolved in 99.5% dimethyl sulfoxide (DMSO) (Kanto, Tokyo, Japan) (50 μl/well), and the optical intensity was measured at 540 nm using an ELISA reader (TECAN, Maennedorf, Switzerland).
Background: Tetrazolium assays rely on reduction of a dye to a coloured formazan, in cell work by metabolically active cells.

In data set [2] the test system is interleukin-8 (IL-8). Nature of the data set: Expression level of IL-8 in sulindac-treated cells (RT-PCR). The note with it: RGM-1 cells, revaprazan 25 uM (rebamipide 50 uM) 16 hours, then sulindac 100 uM 8 hours, FIG. 6. It counts as cell-based, rat. The protocol:
In order to evaluate cytoprotective effect of revaprazan, 100 μM of sulindac belonging to NSAIDs was added to the rat cells, and the expression levels of pro-angiogenic growth factors, VEGF (Vascular Endothelial Growth Factor), interleukin-8 (IL-8), and COX-2 (cyclooxygenase-2) were measured. Rebamipide (50 μM), known to have cytoprotective properties, was used as a control drug and revaprazan (25 μM) was used as a test drug. The rat gastric mucosal (RGM-1, RIKEN cell bank, Japan) cells were seeded in culture dishes at 2×10^6 cells/100 mm^2 and cultured in RPMI 1640 (Gibco BRL, Grand Island, N.Y., U.S.A.), supplemented with 100 units/mL penicillin, 100 ug/mL streptomycin, and 10% FBS (Fetal Bovine Serum). […] The culture media were removed and the cells were washed three times with PBS (137 mM NaCl, 2.7 mM KCl, 10 mM Na2HPO4, and 2 mM KH2PO4). A solution of sulindac in DMSO was added to the cells to reach a final concentration of 100 uM and the cells were cultured at 37° C. for 8 hours. The cultured cells were collected by centrifugation at 23° C. at 3000 rpm for 3 minutes, and the total RNA was isolated from the cells using the TRIzol reagent (Life technologies, Milan, Italy). Sterilized RNase-free water was added to 2 μg of the total RNA and 1 μl of 10 pmol/λ oligo dT to obtain reaction solutions with a volume of 34 μl. […]

For data set [3], the system named is indomethacin-induced gastric mucosal lesions. The data set can be described thus: Preventive effect on NSAID-induced gastropathy. The data set is classed as in vivo, Sprague Dawley male rats. The note with it: rats, oro-gastric pretreatment (revaprazan 5, 10 mg/kg; rebamipide 30 mg/kg; omeprazole 5 mg/kg) prior to indomethacin 40 mg/kg for 12 hrs, FIG. 8. How it is done: Six-week old specific-pathogen-free (SPF) Sprague Dawley male rats (Charles River, Tokyo, Japan) were used for experiments. The rats were fed a sterilized commercial pellet diet (Biogenomics Co., Seoul, Korea), given sterile water ad libitum, and housed in air-conditioned biohazard room with a 12-h light:12-h dark cycle. The rats were food-deprived 24 hours, and then administered with 5, 10 mg/kg revaprazan, 30 mg/kg rebamipide and 5 mg/kg omeprazole suspended in 0.5% CMC (carboxymethylcellulose) via oro-gastric tube prior to exposure to indomethacin (40 mg/kg for 12 hrs). Phosphate-buffered saline was perfused into the gastric lumen of the rats to swell the stomachs. Then, the stomachs were opened by an incision along the greater curvature, and the total area of the gastric mucosal lesions was calculated to obtain the average size of the lesions.

In the case of `Cc1nc(Nc2ccc(F)cc2)nc(N2CCc3ccccc3C2C)c1C` (stereo not shown) [revaprazan, 5,6-dimethyl-2-(4-fluorophenylamino)-4-(1-methyl-1,2,3,4-tetrahydroisoquinolin-2-yl)pyrimidine], in data set [1] (50 uM each), the “cytoprotective effect against H. pylori-induced cytotoxicity compared with rebamipide” value is recorded as “equal to or greater than rebamipide”. For the same molecule, in data set [1] (50 uM pretreatment for 16 hours, then 48-hour H. pylori infection), the “gastric mucosal cytotoxicity by H. pylori infection” value was “significantly reduced”. In addition, the “expression level of IL-8 versus rebamipide-sulindac treatment group” value in data set [2] is given as “much higher”. The “hemorrhagic gastric mucosal lesions after pretreatment” value in data set [3] is recorded as “little hemorrhagic lesions are observed”.
